Laboratory results from ChEMBL document CHEMBL5038625, “Application of the dual-tail approach for the design and synthesis of novel Thiopyrimidine-Benzenesulfonamide hybrids as selective carbonic anhydrase inhibitors” (Eur J Med Chem, 2022).

Legend:
HCT-15 = assay: Antiproliferative activity against human HCT-15 cells assessed as cell growth inhibition at 10 uM incubated for 24 hrs by sulforhodamine B assay; type: functional; conditions: read-out: GI
ACHN = assay: Antiproliferative activity against human ACHN cells assessed as cell growth inhibition at 10 uM incubated for 24 hrs by sulforhodamine B assay; type: functional; conditions: read-out: GI
SK-MEL-5 = assay: Antiproliferative activity against human SK-MEL-5 cells assessed as cell growth inhibition at 10 uM incubated for 24 hrs by sulforhodamine B assay; type: functional; conditions: read-out: GI
Carbonic anhydrase 9 = Carbonic anhydrase 9 (Homo sapiens, UniProt Q16790); assay: Inhibition of human CA9 preincubated for 15 mins by phenol red dye based stopped flow CO2 hydration assay
K562 = assay: Antiproliferative activity against human K562 cells assessed as cell growth inhibition at 10 uM incubated for 24 hrs by sulforhodamine B assay; type: functional; conditions: read-out: GI
OVCAR-4 = assay: Antiproliferative activity against human OVCAR-4 cells assessed as cell growth inhibition at 10 uM incubated for 24 hrs by sulforhodamine B assay; type: functional; conditions: read-out: GI
HT-29 = assay: Antiproliferative activity against human HT-29 cells assessed as cell growth inhibition at 10 uM incubated for 24 hrs by sulforhodamine B assay; type: functional; conditions: read-out: GI
MCF7 = assay: Antiproliferative activity against human MCF7 cells assessed as cell growth inhibition at 10 uM incubated for 24 hrs by sulforhodamine B assay; type: functional; conditions: read-out: GI
T47D = assay: Antiproliferative activity against human T47D cells assessed as cell growth inhibition at 10 uM incubated for 24 hrs by sulforhodamine B assay; type: functional; conditions: read-out: GI
MOLT-4 = assay: Antiproliferative activity against human MOLT-4 cells assessed as cell growth inhibition at 10 uM incubated for 24 hrs by sulforhodamine B assay; type: functional; conditions: read-out: GI
SN12C = assay: Antiproliferative activity against human SN12C cells assessed as cell growth inhibition at 10 uM incubated for 24 hrs by sulforhodamine B assay; type: functional; conditions: read-out: GI
M14 = assay: Antiproliferative activity against human M14 cells assessed as cell growth inhibition at 10 uM incubated for 24 hrs by sulforhodamine B assay; type: functional; conditions: read-out: GI
OVCAR-5 = assay: Antiproliferative activity against human OVCAR-5 cells assessed as cell growth inhibition at 10 uM incubated for 24 hrs by sulforhodamine B assay; type: functional; conditions: read-out: GI
PC-3 = assay: Antiproliferative activity against human PC-3 cells assessed as cell growth inhibition at 10 uM incubated for 24 hrs by sulforhodamine B assay; type: functional; conditions: read-out: GI
DU-145 = assay: Antiproliferative activity against human DU-145 cells assessed as cell growth inhibition at 10 uM incubated for 24 hrs by sulforhodamine B assay; type: functional; conditions: read-out: GI
A549 = assay: Antiproliferative activity against human A549 cells assessed as cell growth inhibition at 10 uM incubated for 24 hrs by sulforhodamine B assay; type: functional; conditions: read-out: GI
[1] = Antiproliferative activity against human […] cells assessed as cell growth inhibition at 10 uM incubated for 24 hrs by sulforhodamine B assay; type: functional; conditions: read-out: GI
SF-539 = assay: Antiproliferative activity against human SF-539 cells assessed as cell growth inhibition at 10 uM incubated for 24 hrs by sulforhodamine B assay; type: functional; conditions: read-out: GI
LOX IMVI = assay: Antiproliferative activity against human LOX IMVI cells assessed as cell growth inhibition at 10 uM incubated for 24 hrs by sulforhodamine B assay; type: functional; conditions: read-out: GI
Carbonic anhydrase 2 = Carbonic anhydrase 2 (Homo sapiens, UniProt P00918); assay: Inhibition of human CA2 preincubated for 15 mins by phenol red dye based stopped flow CO2 hydration assay
KM12 = assay: Antiproliferative activity against human KM12 cells assessed as cell growth inhibition at 10 uM incubated for 24 hrs by sulforhodamine B assay; type: functional; conditions: read-out: GI
COLO 205 = assay: Antiproliferative activity against human COLO 205 cells assessed as cell growth inhibition at 10 uM incubated for 24 hrs by sulforhodamine B assay; type: functional; conditions: read-out: GI
SR = assay: Antiproliferative activity against human SR cells assessed as cell growth inhibition at 10 uM incubated for 24 hrs by sulforhodamine B assay; type: functional; conditions: read-out: GI
CAKI-1 = assay: Antiproliferative activity against human CAKI-1 cells assessed as cell growth inhibition at 10 uM incubated for 24 hrs by sulforhodamine B assay; type: functional; conditions: read-out: GI
CCRF-CEM = assay: Antiproliferative activity against human CCRF-CEM cells assessed as cell growth inhibition at 10 uM incubated for 24 hrs by sulforhodamine B assay; type: functional; conditions: read-out: GI
HCT-116 = assay: Antiproliferative activity against human HCT-116 cells assessed as cell growth inhibition at 10 uM incubated for 24 hrs by sulforhodamine B assay; type: functional; conditions: read-out: GI
UO-31 = assay: Antiproliferative activity against human UO-31 cells assessed as cell growth inhibition at 10 uM incubated for 24 hrs by sulforhodamine B assay; type: functional; conditions: read-out: GI

`NS(=O)(=O)c1ccc(Nc2cc(-c3ccccc3)nc(SCC(=O)c3ccc(Br)cc3)n2)cc1` showed an inhibition of growth at 10 µM (HCT-15) of 28.4%, an inhibition of growth at 10 µM (ACHN) of 9.12% and an inhibition of growth at 10 µM (SK-MEL-5) of 5.28%. For the same compound, the Ki (Carbonic anhydrase 9) was 322 nM, the inhibition of growth at 10 µM (K562) was 22.8% and the inhibition of growth at 10 µM (OVCAR-4) was 7.69%. It also gave an inhibition of growth at 10 µM (HT-29) of 21.8%, an inhibition of growth at 10 µM (MCF7) of 26.9% and an inhibition of growth at 10 µM (T47D) of 10.3%. For the same compound, the inhibition of growth at 10 µM (MOLT-4) was 15.8%, the inhibition of growth at 10 µM (SN12C) was 13.3% and the inhibition of growth at 10 µM (M14) was 7.75%. The inhibition of growth at 10 µM (OVCAR-5) was 5.54%, the inhibition of growth at 10 µM (PC-3) was 8.3% and the inhibition of growth at 10 µM (DU-145) was 5.84%. For the same compound, the inhibition of growth at 10 µM (A549) was 6.27%, the inhibition of growth at 10 µM [1] was 14.2% and the inhibition of growth at 10 µM (SF-539) was 5.75%. The inhibition of growth at 10 µM (LOX IMVI) was 12.7%, the Ki (Carbonic anhydrase 2) was over 20000 nM and the inhibition of growth at 10 µM (KM12) was 11.9%. It also gave an inhibition of growth at 10 µM (COLO 205) of 9.34%, an inhibition of growth at 10 µM (SR) of 15.7% and an inhibition of growth at 10 µM (CAKI-1) of 19.4%. It also gave an inhibition of growth at 10 µM (CCRF-CEM) of 8.13%, an inhibition of growth at 10 µM (HCT-116) of 8.87% and an inhibition of growth at 10 µM (UO-31) of 19.4%.
